The compounds below were run against T1, human M4 muscarinic acetylcholine receptor (Homo sapiens, UniProt P08173) (assay: human FLIPR-based M4 PAM assay (calcium mobilization, CHO-K1 cells with human M4 receptor and Gαqi5)). Conditions: inflection point (IP) of dose response curve, acetylcholine added at 20% of maximum response, read-out: M4 FLIPPR Hu IP.
T1 construct: expressed in transfected cells; host or cells: CHO-K1
T1 sequence (P08173 1-479): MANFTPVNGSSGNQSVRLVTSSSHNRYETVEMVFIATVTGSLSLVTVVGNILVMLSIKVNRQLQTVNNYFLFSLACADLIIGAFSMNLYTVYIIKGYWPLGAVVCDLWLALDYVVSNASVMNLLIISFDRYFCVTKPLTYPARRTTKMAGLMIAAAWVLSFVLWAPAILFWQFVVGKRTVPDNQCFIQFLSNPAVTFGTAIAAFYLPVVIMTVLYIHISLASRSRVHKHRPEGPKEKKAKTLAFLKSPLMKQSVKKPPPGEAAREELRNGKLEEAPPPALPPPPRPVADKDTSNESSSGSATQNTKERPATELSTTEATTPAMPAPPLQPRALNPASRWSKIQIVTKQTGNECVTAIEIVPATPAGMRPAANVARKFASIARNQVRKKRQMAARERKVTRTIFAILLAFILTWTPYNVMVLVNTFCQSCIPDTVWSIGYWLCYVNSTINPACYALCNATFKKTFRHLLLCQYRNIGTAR
Assay type: cell-based
Experimental: In a typical experiment the M4 muscarinic acetylcholine receptor modulating activity of the compounds of the present invention was determined in accordance with the following experimental method. CHO-K1 cells stably transfected with human M4 receptor and chimeric G-protein Gαqi5 (Coward P, et al., Analytical Biochemistry, 270:242-248 (1999)) are thawed from liquid N2 storage, resuspended in growth medium, plated in black, clear bottom 384 well plates, and incubated 16-20 hours at 37° C., 5% CO2. On the day of assay, growth medium is removed, the cells are washed 2 times with wash buffer, and cells are incubated in dye loading buffer at 37° C., 5% CO2 for ˜1 hour. Following dye loading the cell plates are placed in a FLIPR Tetra instrument and while monitoring dye fluorescence (excitation […]), 10 uL of test substance at increasing concentrations is added, and fluorescence values are recorded for 4 min. Next, 10 uL of acetylcholine is added (final concentration calculated so as to achieve 20% of the maximum acetycholine response), and the fluorescence reading is continued for 3.5 min. In some cases, a third addition of acetylcholine (final concentration calculated to achieve 70% of the maximal acetylcholine response) is performed. The resulting dose response curves are fit to a 4 parameter logistic equation and the final result is determined as the inflection point (IP) of the curve
CHO-K1 cells stably transfected with human M4 receptor and chimeric G-protein Gαqi5 are thawed from liquid N2 storage, resuspended in growth medium, plated in black, clear bottom 384 well plates, and incubated 16-20 hours at 37° C., 5% CO2.
On the day of assay, growth medium is removed, the cells are washed 2 times with wash buffer, and cells are incuabted in dye loading buffer at 37° C., 5% CO2 for ˜1 h. Following dye loading the cell plates are placed in a FLIPR Tetra instrument and while monitoring dye fluorescence ([…]), 10 uL of test substance at increasing concentrations is added, and fluorescence values are recorded for 4 min. Next, 10 uL of acetylcholine is added (final concentration calculated so as to achieve 20% of the maximum acetycholine response), and the fluorescence reading is continued for 3.5 min. In some cases, a third addition of acetylcholine (final concentration calculated to achieve 70% of the maximal acetylcholine response) is performed.

| EC50 [nM] | SMILES |
| --- | --- |
| 212 | CC(Cc1ncc(-c2ccc(C#N)nc2-c2ccn3ccnc3c2)o1)C(F)(F)F (racemic) [Example 38, 6-(imidazo[1,2-a]-pyridin-7-yl)-5-(2-(3,3,3-trifluoro-2-methylpropyl)oxazol-5-yl)picolinonitrile] |
| 24 | CC1(Cc2ncc(-c3cc4c(nc3-c3cnc5c(c3)C(=O)NC5)C(F)CC4)o2)CCCC1 (single isomer, unassigned) [Example 44, 3-(7-fluoro-3-(2-((1-methylcyclopentyl)methyl)oxazol-5-yl)-6,7-dihydro-5H-cyclopenta[b]pyridin-2-yl)-6,7-dihydro-5H-pyrrolo[3,4-b]pyridin-5-one] |
| 42 | CC1(Cc2ncc(-c3cc4c(nc3-c3cnc5c(c3)C(=O)NC5)C(F)CC4)o2)CCCC1 (single isomer, unassigned) [Example 45, 3-(7-fluoro-3-(2-((1-methylcyclopentyl)methyl)oxazol-5-yl)-6,7-dihydro-5H-cyclopenta[b]pyridin-2-yl)-6,7-dihydro-5H-pyrrolo[3,4-b]pyridin-5-one] |
| 60 | N#Cc1ccc(-c2cnc(CC(F)C3CC3)o2)c(-c2ccc3cccnc3c2)n1 (single isomer, unassigned) [Example 70, 5-(2-(2-cyclopropyl-2-fluoroethyl)oxazol-5-yl)-6-(quinolin-7-yl)picolinonitrile (single compound)] |
| 54 | N#Cc1ccc(-c2cnc(CC(F)C3CC3)o2)c(-c2ccc3cccnc3c2)n1 (single isomer, unassigned) [Example 71, 5-(2-(2-cyclopropyl-2-fluoroethyl)oxazol-5-yl)-6-(quinolin-7-yl)picolinonitrile (single compound)] |
| 7 | Cc1ccc(-c2cnc(CC3CCCC3)o2)c(-c2ccc3cccnc3c2)n1 [Example 1, 2-(cyclopentylmethyl)-5-(6-methyl-2-(quinolin-7-yl)pyridin-3-yl)oxazole] |
| 13 | COc1cc2ccc(-c3nc(C)ccc3-c3cnc(CC4CCCC4)o3)cc2nn1 [Example 2, 2-(cyclopentyl-methyl)-5-(2-(3-methoxycinnolin-7-yl)-6-methyl-pyridin-3-yl)-oxazole] |
| 42 | CN1Cc2ccc(-c3ncccc3-c3cnc(CC4CCCC4)o3)cc2C1=O [Example 3, 6-(3-(2-(cyclo-pentylmethyl)-oxazol-5-yl)-pyridin-2-yl)-2-methylisoindolin-1-one] |
| 30 | CN1Cc2ccc(-c3nc4c(cc3-c3cnc(CC5(C)CCCC5)o3)CCC4)cc2C1=O [Example 4, 2-methyl-6-(3-(2-((1-methylcyclopentyl)methyl)oxazol-5-yl)-6,7-dihydro-5H-cyclopenta[b]pyridin-2-yl)isoindolin-1-one] |
| 170 | CC(=O)OC1CCc2cc(-c3cnc(CC4(C)CCCC4)o3)c(-c3ccc4ccc(F)nc4c3)nc21 (stereo not shown) [Example 5, 2-(2-fluoroquinolin-7-yl)-3-(2-((1-methylcyclopentyl)-methyl)oxazol-5-yl)-6,7-dihydro-5H-cyclopenta[b]pyridin-7-yl acetate] |
| 14 | CN1Cc2ccc(-c3nc(C#N)ccc3-c3cnc(CC4(C)CCCC4)o3)cc2C1=O [Example 6, 6-(2-methyl-3-oxo-isoindolin-5-yl)-5-(2-((1-methyl-cyclopentyl)methyl)-oxazol-5-yl)picolino-nitrile] |
| 34 | CC1(Cc2ncc(-c3ccc(C#N)nc3-c3ccc4cccnc4c3)o2)CCCC1 [Example 7, 5-(2-((1-methyl-cyclopentyl)methyl)-oxazol-5-yl)-6-(quinolin-7-yl)-picolinonitrile] |
| 44 | CN1Cc2ccc(-c3nc(F)ccc3-c3cnc(CC4(C)CCCC4)o3)cc2C1=O [Example 8, 6-(6-fluoro-3-(2-((1-methylcyclo-pentyl)methyl)oxazol-5-yl)pyridin-2-yl)-2-methylisoindolin-1-one] |
| 108 | CC1(Cc2ncc(-c3ccc(C#N)nc3N3CCn4ccnc4C3)o2)CCCC1 [Example 9, 6-(5,6-dihydro-imidazo[1,2-a]-pyrazin-7(8H)-yl)-5-(2-((1-methyl-cyclopentyl)-methyl)oxazol-5-yl)picolinonitrile] |
| 209 | CN1C(=O)c2cc(-c3nc4c(cc3-c3cnc(CC5(C)CCCC5)o3)CCC4)cnc2C1=O [Example 10, 6-methyl-3-(3-(2-((1-methylcyclo-pentyl)methyl)oxazol-5-yl)-6,7-dihydro-5H-cyclopenta[b]-pyridin-2-yl)-5H-pyrrolo[3,4-b]-pyridine-5,7(6H)-dione] |
| 69 | CC(C)(C)Cc1ncc(-c2ccc(C#N)nc2-c2ccc3cccnc3c2)o1 [Example 11, 5-(2-neopentyl-oxazol-5-yl)-6-(quinolin-7-yl)-picolinonitrile] |
| 34 | CN1Cc2ncc(-c3nc(C#N)ccc3-c3cnc(CC4(C)CCCC4)o3)cc2C1=O [Example 12, 6-(6-methyl-5-oxo-6,7-dihydro-5H-pyrrolo[3,4-b]-pyridin-3-yl)-5-(2-((1-methyl-cyclopentyl)-methyl)oxazol-5-yl)picolinonitrile] |
| 128 | CC(C)(C)Cc1ncc(-c2ccc(C(F)F)nc2-c2ccc3cccnc3c2)o1 [Example 13, 5-(6-(difluoro-methyl)-2-(quinolin-7-yl)pyridin-3-yl)-2-neopentyloxazole] |
| 172 | COc1cc2ccc(-c3nc(C(F)F)ccc3-c3cnc(CC(C)(C)C)o3)cc2nn1 [Example 14, 5-(6-(difluoro-methyl)-2-(3-methoxycinnolin-7-yl)pyridin-3-yl)-2-neopentyloxazole] |
| 80 | CN1Cc2ccc(-c3nc(C(F)F)ccc3-c3cnc(CC(C)(C)C)o3)cc2C1=O [Example 15, 6-(6-(difluoro-methyl)-3-(2-neopentyloxazol-5-yl)pyridin-2-yl)-2-methylisoindolin-1-one] |
| 61 | CC(C)(C)Cc1ncc(-c2ccc(C#N)nc2-c2ccn3ccnc3c2)o1 [Example 16, 6-(imidazo[1,2-a]-pyridin-7-yl)-5-(2-neopentyloxazol-5-yl)picolinonitrile] |
| 26 | CN1Cc2ncc(-c3nc4c(cc3-c3cnc(CC5(C)CCCC5)o3)CCC4)cc2C1=O [Example 17, 6-methyl-3-(3-(2-((1-methylcyclo-pentyl)methyl)-oxazol-5-yl)-6,7-dihydro-5H-cyclo-penta[b]pyridin-2-yl)-6,7-dihydro-5H-pyrrolo[3,4-b]-pyridin-5-one] |
| 150 | CN1Cc2ncc(-c3nc(C#N)ccc3-c3cnc(CC(C)(C)C)o3)cc2C1=O [Example 18, 6-(6-methyl-5-oxo-6,7-dihydro-5H-pyrrolo[3,4-b]-pyridin-3-yl)-5-(2-neopentyloxazol-5-yl)picolinonitrile] |
| 73 | CC(C)(C)Cc1ncc(-c2ccc(C(F)F)nc2-c2ccn3ccnc3c2)o1 [Example 19, 5-(6-(difluoro-methyl)-2-(imidazo-[1,2-a]pyridin-7-yl)pyridin-3-yl)-2-neopentyloxazole] |
| 163 | CN1Cc2ncc(-c3nc(C(F)F)ccc3-c3cnc(CC(C)(C)C)o3)cc2C1=O [Example 20, 3-(6-(difluoro-methyl)-3-(2-neopentyloxazol-5-yl)pyridin-2-yl)-6-methyl-6,7-dihydro-5H-pyrrolo[3,4-b]-pyridin-5-one] |
| 82 | N#Cc1ccc(-c2cnc(CC3(C(F)(F)F)CC3)o2)c(-c2ccn3ccnc3c2)n1 [Example 21, 6-(imidazo[1,2-a]-pyridin-7-yl)-5-(2-((1-(trifluoromethyl)-cyclopropyl)methyl)-oxazol-5-yl)picolino-nitrile] |
| 76 | CN1Cc2ccc(-c3nc(C#N)ccc3-c3cnc(CC(C)(C)C(F)(F)F)o3)cc2C1=O [Example 22, 6-(2-methyl-3-oxoisoindolin-5-yl)-5-(2-(3,3,3-trifluoro-2,2-dimethylpropyl)-oxazol-5-yl)picolino-nitrile] |
| 104 | CC(C)(Cc1ncc(-c2ccc(C#N)nc2-c2ccc3cccnc3c2)o1)C(F)(F)F [Example 23, 6-(quinolin-7-yl)-5-(2-(3,3,3-trifluoro-2,2-dimethylpropyl)-oxazol-5-yl)picolino-nitrile] |

From patent US10981902B2 (Merck Sharp & Dohme Corp., priority 2017, dated 2021)
